Data taken from publication PMC9090415, “Discovery of small molecule inhibitors of Plasmodium falciparum apicoplast DNA polymerase” (Journal of Enzyme Inhibition and Medicinal Chemistry, 2022).

Molecular target: P. falciparum apicoplast DNA polymerase (Pf-apPOL) (Plasmodium falciparum, UniProt Q8ILY1)
Assay: Fluorescence-based high-throughput DNA polymerase assay (molecular beacon), primary screen and dose-response;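 as to % inhibition ApPOL 90': test concentration in µM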;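 as to % inhibition apPOL 180': test concentration in µM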
Type: biochemical
Outline: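 Single-point screening used 10 µM compound with 20 nM polymerase, 20 nM hairpin substrate and 6 µM dNTPs for 90 min at 25 °C. Confirmatory titrations (2.5–80 µM) followed fluorescence at three times, and IC50 was derived from a fit including a cooperativity term n.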

[1] = primary screen value of the 186 hits; unit not given; 90 min, 10 µM

Sequence of P. falciparum apicoplast DNA polymerase (Pf-apPOL) (Q8ILY1 entry or part of it): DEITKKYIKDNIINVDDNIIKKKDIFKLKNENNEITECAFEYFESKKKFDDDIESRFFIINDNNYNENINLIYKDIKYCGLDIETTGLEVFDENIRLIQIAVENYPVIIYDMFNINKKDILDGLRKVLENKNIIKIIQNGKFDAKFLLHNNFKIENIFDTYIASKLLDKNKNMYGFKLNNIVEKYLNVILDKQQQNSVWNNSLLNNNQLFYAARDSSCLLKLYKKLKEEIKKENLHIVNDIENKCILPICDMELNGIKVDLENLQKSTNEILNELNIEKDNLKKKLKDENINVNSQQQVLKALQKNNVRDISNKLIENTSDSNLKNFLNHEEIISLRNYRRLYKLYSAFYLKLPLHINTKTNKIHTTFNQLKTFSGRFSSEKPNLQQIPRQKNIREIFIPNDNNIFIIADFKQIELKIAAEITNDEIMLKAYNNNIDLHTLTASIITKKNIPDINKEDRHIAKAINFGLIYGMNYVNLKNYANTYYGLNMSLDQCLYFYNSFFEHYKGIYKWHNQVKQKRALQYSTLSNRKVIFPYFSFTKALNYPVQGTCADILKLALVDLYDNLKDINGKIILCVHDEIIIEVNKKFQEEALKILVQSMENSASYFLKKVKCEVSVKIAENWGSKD

## COc1ccc(NC(=O)Cn2nc3c(cc2=O)CCC3)cc1Cl [Molecule 4, COc1ccc(cc1Cl)NC(=O)Cn1nc2CCCc2cc1=O]
DRC-1; concentration 2.5; 10'
  % inhibition Apo pol 10': -1.67%
DRC-1; concentration 2.5; 90'
  % inhibition Apol 90': -5%
DRC-1; concentration 2.5; 180'
  % inhibition apPOL 180': -9%
DRC-1; concentration 5; 10'
  % inhibition Apo pol 10': 44%
DRC-1; concentration 5; 90'
  % inhibition Apol 90': 29%
DRC-1; concentration 5; 180'
  % inhibition apPOL 180': 17%
DRC-1; concentration 10; 10'
  % inhibition Apo pol 10': 88%
DRC-1; concentration 10; 90'
  % inhibition Apol 90': 78%
DRC-1; concentration 10; 180'
  % inhibition apPOL 180': 66%
DRC-1; concentration 20; 10'
  % inhibition Apo pol 10': 94%
DRC-1; concentration 20; 90'
  % inhibition Apol 90': 90%
DRC-1; concentration 20; 180'
  % inhibition apPOL 180': 86%
DRC-1; concentration 40; 10'
  % inhibition Apo pol 10': 93%
DRC-1; concentration 40; 90'
  % inhibition Apol 90': 92%
DRC-1; concentration 40; 180'
  % inhibition apPOL 180': 91%
DRC-1; concentration 80 (unit not given); 10'
  % inhibition Apo pol 10': 89%
DRC-1; concentration 80; 90'
  % inhibition Apol 90': 90%
DRC-1; concentration 80; 180'
  % inhibition apPOL 180': 91%
DRC-2; 40'; concentration 10
  % inhibition Apol 40': 69%
DRC-2; 40'; concentration 20
  % inhibition Apol 40': 69%
DRC-2; 90'; concentration 10
  % inhibition ApPOL 90': 71%
DRC-2; 90'; concentration 80
  % inhibition ApPOL 90': 71%
DRC-2; 180'; concentration 5
  % inhibition apPOL 180': 44%
DRC-2; 180'; concentration 10
  % inhibition apPOL 180': 69%
DRC-2; 180'; concentration 40
  % inhibition apPOL 180': 78%
DRC-2; concentration 2.5; 5'
  % inhibition Apo pol 5': 19%
DRC-2; concentration 2.5; 40'
  % inhibition Apol 40': 18%
DRC-2; concentration 2.5; 90'
  % inhibition ApPOL 90': 16%
DRC-2; concentration 2.5; 180'
  % inhibition apPOL 180': 8%
DRC-2; concentration 5; 5'
  % inhibition Apo pol 5': 46%
DRC-2; concentration 5; 40'
  % inhibition Apol 40': 55%
DRC-2; concentration 5; 90'
  % inhibition ApPOL 90': 54%
DRC-2; concentration 5; 180'
  % inhibition apPOL 180': 44%
DRC-2; concentration 10; 5'
  % inhibition Apo pol 5': 52%
DRC-2; concentration 10; 40'
  % inhibition Apol 40': 69%
DRC-2; concentration 10; 90'
  % inhibition ApPOL 90': 71%
DRC-2; concentration 10; 180'
  % inhibition apPOL 180': 69%
DRC-2; concentration 20; 5'
  % inhibition Apo pol 5': 49%
DRC-2; concentration 20; 40'
  % inhibition Apol 40': 69%
DRC-2; concentration 20; 90'
  % inhibition ApPOL 90': 73%
DRC-2; concentration 20; 180'
  % inhibition apPOL 180': 75%
DRC-2; concentration 40; 5'
  % inhibition Apo pol 5': 50%
DRC-2; concentration 40; 40'
  % inhibition Apol 40': 70%
DRC-2; concentration 40; 90'
  % inhibition ApPOL 90': 74%
DRC-2; concentration 40; 180'
  % inhibition apPOL 180': 78%
DRC-2; concentration 80; 5'
  % inhibition Apo pol 5': 43%
DRC-2; concentration 80; 40'
  % inhibition Apol 40': 65%
DRC-2; concentration 80; 90'
  % inhibition ApPOL 90': 71%
DRC-2; concentration 80; 180'
  % inhibition apPOL 180': 76%
First dose-response set; 10'; concentration 5
  % inhibition Apo pol 10': 44%
First dose-response set; 90'; concentration 10
  % inhibition Apol 90': 78%
First dose-response set; 90'; concentration 20
  % inhibition Apol 90': 90%
First dose-response set; 90'; concentration 80
  % inhibition Apol 90': 90%
First dose-response set; 180'; concentration 40
  % inhibition apPOL 180': 91%
First dose-response set; 180'; concentration 80
  % inhibition apPOL 180': 91%
[1]
  DNA Pol: 45
Primary screen value; head prints only 'DNA Pol'; 90 min, 10 µM
  DNA Pol: 45

## O=c1cc(-c2ccccc2Cl)oc2c(NS(=O)(=O)c3cc(Cl)cc(Cl)c3O)ccc(O)c12 [KU0104277]
DRC-1; 10'; concentration 2.5
  % inhibition Apo pol 10': -4.204%
DRC-1; 10'; concentration 5
  % inhibition Apo pol 10': 6.708%
DRC-1; 10'; concentration 10
  % inhibition Apo pol 10': 7.439%
DRC-1; 10'; concentration 20
  % inhibition Apo pol 10': 27.5333%
DRC-1; 10'; concentration 40
  % inhibition Apo pol 10': 73.9275%
DRC-1; 10'; concentration 80
  % inhibition Apo pol 10': 90.8547%
DRC-1; 90'; concentration 2.5
  % inhibition Apol 90': -8.287%
DRC-1; 90'; concentration 5
  % inhibition Apol 90': 2.039%
DRC-1; 90'; concentration 10
  % inhibition Apol 90': 0.6918%
DRC-1; 90'; concentration 20
  % inhibition Apol 90': 20.1462%
DRC-1; 90'; concentration 40
  % inhibition Apol 90': 69.1951%
DRC-1; 90'; concentration 80
  % inhibition Apol 90': 87.9641%
DRC-1; 180'; concentration 2.5
  % inhibition apPOL 180': -13.4888%
DRC-1; 180'; concentration 5
  % inhibition apPOL 180': -5.423%
DRC-1; 180'; concentration 10
  % inhibition apPOL 180': -7.477%
DRC-1; 180'; concentration 20
  % inhibition apPOL 180': 7.115%
DRC-1; 180'; concentration 40
  % inhibition apPOL 180': 55.1056%
DRC-1; 180'; concentration 80
  % inhibition apPOL 180': 83.6554%
DRC-2; 5'; concentration 2.5
  % inhibition Apo pol 5': -4%
DRC-2; 5'; concentration 5
  % inhibition Apo pol 5': -2.32%
DRC-2; 5'; concentration 10
  % inhibition Apo pol 5': 35%
DRC-2; 5'; concentration 20
  % inhibition Apo pol 5': 11%
DRC-2; 5'; concentration 40
  % inhibition Apo pol 5': 63%
DRC-2; 5'; concentration 80
  % inhibition Apo pol 5': 65%
DRC-2; 40'; concentration 2.5
  % inhibition Apol 40': -1.34%
DRC-2; 40'; concentration 5
  % inhibition Apol 40': -1%
DRC-2; 40'; concentration 10
  % inhibition Apol 40': 42%
DRC-2; 40'; concentration 20
  % inhibition Apol 40': 11%
DRC-2; 40'; concentration 40
  % inhibition Apol 40': 74%
DRC-2; 40'; concentration 80
  % inhibition Apol 40': 75%
DRC-2; 90'; concentration 2.5
  % inhibition ApPOL 90': -1%
DRC-2; 90'; concentration 5
  % inhibition ApPOL 90': 0.948%
DRC-2; 90'; concentration 10
  % inhibition ApPOL 90': 41%
DRC-2; 90'; concentration 20
  % inhibition ApPOL 90': 9%
DRC-2; 90'; concentration 40
  % inhibition ApPOL 90': 75%
DRC-2; 90'; concentration 80
  % inhibition ApPOL 90': 76%
DRC-2; 180'; concentration 2.5
  % inhibition apPOL 180': -2.11%
DRC-2; 180'; concentration 5
  % inhibition apPOL 180': -2.49%
DRC-2; 180'; concentration 10
  % inhibition apPOL 180': 33%
DRC-2; 180'; concentration 20
  % inhibition apPOL 180': 3.69%
DRC-2; 180'; concentration 40
  % inhibition apPOL 180': 72%
DRC-2; 180'; concentration 80
  % inhibition apPOL 180': 73%
conc. 2.5; 90'; DRC-2
  % inhibition ApPOL 90': -1%
conc. 5; 40'; DRC-2
  % inhibition Apol 40': -1%
conc. 20; 5'; DRC-2
  % inhibition Apo pol 5': 11%
conc. 20; 40'; DRC-2
  % inhibition Apol 40': 11%
conc. 40; 90'; DRC-2
  % inhibition ApPOL 90': 75%
conc. 80; 40'; DRC-2
  % inhibition Apol 40': 75%
Primary screen value by plate and well; 90 min, 10 µM
  DNA Pol: 36
[1]
  DNA Pol: 36

## O=C(Nc1nnc(-c2cccs2)o1)c1ccc([N+](=O)[O-])o1 [Molecule 74, O=C(c1ccc(o1)[N+](=O)[O-])Nc1nnc(o1)c1cccs1]
'DNA Pol'; screening value, unit not given; 90 min, 10 µM
  DNA Pol: 45
DRC-1; 10'; concentration 2.5
  % inhibition Apo pol 10': 6.774%
DRC-1; 10'; concentration 5
  % inhibition Apo pol 10': 8.378%
DRC-1; 10'; concentration 10
  % inhibition Apo pol 10': 26.6912%
DRC-1; 10'; concentration 20
  % inhibition Apo pol 10': 31.2083%
DRC-1; 10'; concentration 40
  % inhibition Apo pol 10': 61.6111%
DRC-1; 10'; concentration 80
  % inhibition Apo pol 10': 81.7408%
DRC-1; 90'; concentration 2.5
  % inhibition Apol 90': 1.699%
DRC-1; 90'; concentration 5
  % inhibition Apol 90': 1.687%
DRC-1; 90'; concentration 10
  % inhibition Apol 90': 13.6974%
DRC-1; 90'; concentration 20
  % inhibition Apol 90': 16.6576%
DRC-1; 90'; concentration 40
  % inhibition Apol 90': 40.7668%
DRC-1; 90'; concentration 80
  % inhibition Apol 90': 62.2777%
DRC-1; 180'; concentration 2.5
  % inhibition apPOL 180': -4.1234%
DRC-1; 180'; concentration 5
  % inhibition apPOL 180': -4.583%
DRC-1; 180'; concentration 10
  % inhibition apPOL 180': 3.855%
DRC-1; 180'; concentration 20
  % inhibition apPOL 180': 5.086%
DRC-1; 180'; concentration 40
  % inhibition apPOL 180': 25.388%
DRC-1; 180'; concentration 80
  % inhibition apPOL 180': 45.6773%
DRC-2, 5', concentration 2.5
  % inhibition Apo pol 5': 3%
DRC-2, 5', concentration 5
  % inhibition Apo pol 5': 14%
DRC-2, 5', concentration 10
  % inhibition Apo pol 5': 30%
DRC-2, 5', concentration 20
  % inhibition Apo pol 5': 41%
DRC-2, 5', concentration 40
  % inhibition Apo pol 5': 61%
DRC-2, 5', concentration 80
  % inhibition Apo pol 5': 70%
DRC-2, 40', concentration 2.5
  % inhibition Apol 40': 1.79%
DRC-2, 40', concentration 5
  % inhibition Apol 40': 13%
DRC-2, 40', concentration 10
  % inhibition Apol 40': 27%
DRC-2, 40', concentration 20
  % inhibition Apol 40': 36%
DRC-2, 40', concentration 40
  % inhibition Apol 40': 61%
DRC-2, 40', concentration 80
  % inhibition Apol 40': 78%
DRC-2, 90', concentration 2.5
  % inhibition ApPOL 90': -0.446%
DRC-2, 90', concentration 5
  % inhibition ApPOL 90': 12%
DRC-2, 90', concentration 10
  % inhibition ApPOL 90': 24%
DRC-2, 90', concentration 20
  % inhibition ApPOL 90': 32%
DRC-2, 90', concentration 40
  % inhibition ApPOL 90': 57%
DRC-2, 90', concentration 80
  % inhibition ApPOL 90': 79%
DRC-2, 180', concentration 2.5
  % inhibition apPOL 180': -3.19%
DRC-2, 180', concentration 5
  % inhibition apPOL 180': 7%
DRC-2, 180', concentration 10
  % inhibition apPOL 180': 15%
DRC-2, 180', concentration 20
  % inhibition apPOL 180': 20%
DRC-2, 180', concentration 40
  % inhibition apPOL 180': 45%
DRC-2, 180', concentration 80
  % inhibition apPOL 180': 76%
Conc 40 (unit not given); 5'; DRC-2
  % inhibition Apo pol 5': 61%
Conc 40 (unit not given); 40'; DRC-2
  % inhibition Apol 40': 61%
Primary screen hit value, DNA Pol (186 hits); 90 min, 10 µM
  DNA Pol: 45
